# Where two headings read alike, the source gives them in different places.
# Columns and labels:
# [1] = Hygroscopicity evaluation by DVS at 25° C.; assay type: physicochemical; settings: for Water uptake up to 80% RH: DVS, 25° C.; for Form change after DVS test: XRPD after DVS
# Procedure: DVS was measured via a SMS (Surface Measurement Systems) DVS Intrinsic. The relative humidity at 25° C. were calibrated against deliquescence point of LiCl, Mg(NO3)2 and KCl.
structure (smiles),measurement,setting,value
[2H]C([2H])(Cc1nc(-c2ccccc2)oc1C)Oc1ccc(C[C@H](OC)C(=O)[O-])c2sccc12.[K+] [K salt Form C],Area (%) of impurity peak RRT 1.34,"40° C./75% RH, 2 weeks",0.24%
same,Area (%) of impurity peak RRT 1.34,"40° C./75% RH, 4 weeks",0.25%
same,Area (%) of impurity peak RRT 1.34,"40° C./75% RH, 8 weeks",0.25%
same,"HPLC Purity (area %), main peak RRT 1.00","40° C./75% RH/open, 2 weeks",99.76 area %
same,HPLC Reults of initial (%),"40° C./75% RH/open, 2 weeks",100.01%
same,"HPLC Purity (area %), main peak RRT 1.00","40° C./75% RH/open, 4 weeks",99.75 area %
same,HPLC Reults of initial (%),"40° C./75% RH/open, 4 weeks",100.00%
same,"HPLC Purity (area %), main peak RRT 1.00","40° C./75% RH/open, 8 weeks",99.75 area %
same,HPLC Reults of initial (%),"40° C./75% RH/open, 8 weeks",100.00%
same,Area (%) of impurity peak RRT 0.88,"60° C., 2 weeks",0.10%
same,Area (%) of impurity peak RRT 1.14,"60° C., 2 weeks",0.07%
same,Area (%) of impurity peak RRT 1.34,"60° C., 2 weeks",0.26%
same,Area (%) of impurity peak RRT 0.88,"60° C., 4 weeks",0.08%
same,Area (%) of impurity peak RRT 1.14,"60° C., 4 weeks",0.04%
same,Area (%) of impurity peak RRT 1.34,"60° C., 4 weeks",0.24%
same,Area (%) of impurity peak RRT 0.88,"60° C., 8 weeks",0.09%
same,Area (%) of impurity peak RRT 1.34,"60° C., 8 weeks",0.24%
same,Form or purity change after storage,60° C./close and 40° C./75% RH/open for 2/4/8 weeks,No purity decrease but form change
same,"HPLC Purity (area %), main peak RRT 1.00","60° C./close, 2 weeks",99.57 area %
same,HPLC Reults of initial (%),"60° C./close, 2 weeks",99.82%
same,"HPLC Purity (area %), main peak RRT 1.00","60° C./close, 4 weeks",99.64 area %
same,HPLC Reults of initial (%),"60° C./close, 4 weeks",99.89%
same,"HPLC Purity (area %), main peak RRT 1.00","60° C./close, 8 weeks",99.67 area %
same,HPLC Reults of initial (%),"60° C./close, 8 weeks",99.92%
same,Area (%) of impurity peak RRT 1.34,Initial,0.25%
same,"HPLC Purity (area %), main peak RRT 1.00",Initial,99.75 area %
same,Water uptake up to 80% RH,[1],12.0%
same,Form change after DVS test,[1],form change was observed
[2H]C([2H])(Cc1nc(-c2ccccc2)oc1C)Oc1ccc(C[C@H](OC)C(=O)[O-])c2sccc12.[Na+] [Na salt Form A],Area (%) of impurity peak RRT 0.89,"40° C./75% RH, 2 weeks",0.04%
same,Area (%) of impurity peak RRT 1.14,"40° C./75% RH, 2 weeks",0.03%
same,Area (%) of impurity peak RRT 1.34,"40° C./75% RH, 2 weeks",0.23%
same,Area (%) of impurity peak RRT 0.89,"40° C./75% RH, 4 weeks",0.07%
same,Area (%) of impurity peak RRT 1.34,"40° C./75% RH, 4 weeks",0.23%
same,Area (%) of impurity peak RRT 0.89,"40° C./75% RH, 8 weeks",0.05%
same,Area (%) of impurity peak RRT 1.34,"40° C./75% RH, 8 weeks",0.24%
same,"HPLC Purity (area %), main peak RRT 1.00","40° C./75% RH/open, 2 weeks",99.71 area %
same,HPLC Reults of initial (%),"40° C./75% RH/open, 2 weeks",100.03%
same,"HPLC Purity (area %), main peak RRT 1.00","40° C./75% RH/open, 4 weeks",99.69 area %
same,HPLC Reults of initial (%),"40° C./75% RH/open, 4 weeks",100.02%
same,"HPLC Purity (area %), main peak RRT 1.00","40° C./75% RH/open, 8 weeks",99.71 area %
same,HPLC Reults of initial (%),"40° C./75% RH/open, 8 weeks",100.03%
same,Form or purity change after storage,60° C. for 8 weeks,Slightly purity decrease and form change
same,Area (%) of impurity peak RRT 0.58,"60° C., 2 weeks",0.10%
same,Area (%) of impurity peak RRT 0.79,"60° C., 2 weeks",0.07%
same,Area (%) of impurity peak RRT 0.81,"60° C., 2 weeks",0.10%
same,Area (%) of impurity peak RRT 0.89,"60° C., 2 weeks",0.08%
same,Area (%) of impurity peak RRT 0.91,"60° C., 2 weeks",0.05%
same,Area (%) of impurity peak RRT 1.14,"60° C., 2 weeks",0.05%
same,Area (%) of impurity peak RRT 1.34,"60° C., 2 weeks",0.22%
same,Area (%) of impurity peak RRT 0.29,"60° C., 4 weeks",0.07%
same,Area (%) of impurity peak RRT 0.58,"60° C., 4 weeks",0.16%
same,Area (%) of impurity peak RRT 0.63,"60° C., 4 weeks",0.05%
same,Area (%) of impurity peak RRT 0.79,"60° C., 4 weeks",0.13%
same,Area (%) of impurity peak RRT 0.81,"60° C., 4 weeks",0.20%
same,Area (%) of impurity peak RRT 0.86,"60° C., 4 weeks",0.06%
same,Area (%) of impurity peak RRT 0.89,"60° C., 4 weeks",0.08%
same,Area (%) of impurity peak RRT 0.91,"60° C., 4 weeks",0.10%
same,Area (%) of impurity peak RRT 0.95,"60° C., 4 weeks",0.05%
same,Area (%) of impurity peak RRT 1.34,"60° C., 4 weeks",0.20%
same,Area (%) of impurity peak RRT 0.29,"60° C., 8 weeks",0.11%
same,Area (%) of impurity peak RRT 0.58,"60° C., 8 weeks",0.25%
same,Area (%) of impurity peak RRT 0.63,"60° C., 8 weeks",0.12%
same,Area (%) of impurity peak RRT 0.79,"60° C., 8 weeks",0.19%
same,Area (%) of impurity peak RRT 0.81,"60° C., 8 weeks",0.35%
same,Area (%) of impurity peak RRT 0.86,"60° C., 8 weeks",0.06%
same,Area (%) of impurity peak RRT 0.91,"60° C., 8 weeks",0.21%
same,Area (%) of impurity peak RRT 0.95,"60° C., 8 weeks",0.09%
same,Area (%) of impurity peak RRT 1.34,"60° C., 8 weeks",0.20%
same,"HPLC Purity (area %), main peak RRT 1.00","60° C./close, 2 weeks",99.33 area %
same,HPLC Reults of initial (%),"60° C./close, 2 weeks",99.65%
same,"HPLC Purity (area %), main peak RRT 1.00","60° C./close, 4 weeks",98.91 area %
same,HPLC Reults of initial (%),"60° C./close, 4 weeks",99.23%
same,"HPLC Purity (area %), main peak RRT 1.00","60° C./close, 8 weeks",98.43 area %
same,HPLC Reults of initial (%),"60° C./close, 8 weeks",98.75%
same,Area (%) of impurity peak RRT 0.89,Initial,0.05%
same,Area (%) of impurity peak RRT 1.14,Initial,0.05%
same,Area (%) of impurity peak RRT 1.34,Initial,0.22%
same,"HPLC Purity (area %), main peak RRT 1.00",Initial,99.68 area %
same,Form,"XRPD after 40° C./75% RH/open, 2/4/8 weeks",New form
same,Water uptake up to 80% RH,[1],5.5%
same,Form change after DVS test,[1],form change was observed
